Experimental data reported in paper PMC11802874, “The hypolipidemic effect of MI-883, the combined CAR agonist/ PXR antagonist, in diet-induced hypercholesterolemia model” (Nature Communications, 2025).

Tested on: humanized PXR-CAR-CYP3A4/3A7 mice
Assay: Glucose homeostasis: IPGTT, IPITT, glycemia, insulin (HFD study)
Type: in vivo, mouse
Parameters: insulinemia: unit not given here
Experimental: Intraperitoneal glucose tolerance test (IPGTT) and Intraperitoneal Insulin Tolerance Test (IPITT) assays were performed one week before the end of the HFD study. For IPGTT, mice fasted for 18 h were intraperitoneally injected with 20% D-glucose solution (2 g/kg BW). Blood was sampled before the injection and 15, 30, 60, and 120 min after. For the IPITT assay, mice fasted for 4 h were administered with 0.75 IU insulin/kg BW. Blood was sampled before the injection and 15, 30, 45, 60, and 90 min after.

`NC(=O)c1cc(Cn2cc(-c3c(-c4ccc(Cl)cc4)nc4cc(F)ccn34)nn2)ccc1Cl` [MI-883, 2-chloro-5-((4-(2-(4-chlorophenyl)-7-fluoroimidazo[1,2-a]pyridin-3-yl)-1H-1,2,3-triazol-1-yl)methyl)benzamide] was tested, and the insulinemia (HFD study) was “no effect”, the “postprandial glucose concentrations in IPGTT or IPITT” value (HFD study) was “did not significantly decrease” and the plasma glucose levels (both studies) was “no effect”.
